This is an account of results in publication PMC11307993 (ACS Omega, 2024).

In data set [1] the test system is carrageenan induced rat paw edema. The data set can be described thus: In vivo anti-inflammatory assay, carrageenan-induced paw edema. Particulars: 2 mg/kg oral; for % of edema inhibition 1 h: 1 h after carrageenan injection; for % of edema inhibition 3 h: 3 h after carrageenan injection; for % of edema inhibition 5 h: 5 h after carrageenan injection.
The test system of data set [2] is serum levels of LDH, Tn-I, TNF-α and CK-MB. The data set can be described thus: Evaluation of cardiovascular parameters. Type of data set: in vivo, rats. Particulars: rat serum, 100 mg/kg oral, 2 weeks.
Data set [3] concerns rat stomach. Kind of data set: Gastric ulcerogenic activity. The class given is in vivo. Particulars: oral 10 mg/kg.
The target of data set [4] is T1, sEH (Homo sapiens, UniProt P34913).
T1 sequence (P34913 1-555): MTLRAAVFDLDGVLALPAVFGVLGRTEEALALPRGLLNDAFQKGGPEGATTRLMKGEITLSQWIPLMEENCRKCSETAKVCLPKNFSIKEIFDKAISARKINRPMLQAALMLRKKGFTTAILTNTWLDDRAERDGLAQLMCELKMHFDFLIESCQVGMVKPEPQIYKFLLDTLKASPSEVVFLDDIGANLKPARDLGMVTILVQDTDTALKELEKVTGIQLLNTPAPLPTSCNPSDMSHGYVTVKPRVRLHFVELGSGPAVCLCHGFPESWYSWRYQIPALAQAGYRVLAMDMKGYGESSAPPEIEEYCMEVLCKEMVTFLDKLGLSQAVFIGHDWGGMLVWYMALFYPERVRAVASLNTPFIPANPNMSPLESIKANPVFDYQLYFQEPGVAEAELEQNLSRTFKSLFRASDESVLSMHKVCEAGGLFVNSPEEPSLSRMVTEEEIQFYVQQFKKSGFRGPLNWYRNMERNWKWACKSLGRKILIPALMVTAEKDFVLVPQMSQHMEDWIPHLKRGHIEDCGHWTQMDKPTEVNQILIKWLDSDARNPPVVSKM
The data set can be described thus: In vitro sEH inhibition assay. The class given is biochemical. Particulars: sEH (IC50, nM).

Data set [5] deals with acetic acid-induced writhing. The data set can be described thus: In vivo analgesic assay, acetic acid-induced writhing method. Further details: species or system Wistar rats. Particulars: for potency: % inhibition of tested compound / % inhibition of reference (celecoxib); for % inhibition (number of writhing) / no. of writhes (mean ± SE): acetic acid-induced writhing. (In general: Writhing tests count abdominal constrictions after an irritant is injected.)

In data set [6] the test system is 5-LOX. Particulars: read-out: 5-LOX (IC50).
The target of data set [7] is T2, COX-2 (Homo sapiens, UniProt P35354).
T2 sequence (P35354 18-604): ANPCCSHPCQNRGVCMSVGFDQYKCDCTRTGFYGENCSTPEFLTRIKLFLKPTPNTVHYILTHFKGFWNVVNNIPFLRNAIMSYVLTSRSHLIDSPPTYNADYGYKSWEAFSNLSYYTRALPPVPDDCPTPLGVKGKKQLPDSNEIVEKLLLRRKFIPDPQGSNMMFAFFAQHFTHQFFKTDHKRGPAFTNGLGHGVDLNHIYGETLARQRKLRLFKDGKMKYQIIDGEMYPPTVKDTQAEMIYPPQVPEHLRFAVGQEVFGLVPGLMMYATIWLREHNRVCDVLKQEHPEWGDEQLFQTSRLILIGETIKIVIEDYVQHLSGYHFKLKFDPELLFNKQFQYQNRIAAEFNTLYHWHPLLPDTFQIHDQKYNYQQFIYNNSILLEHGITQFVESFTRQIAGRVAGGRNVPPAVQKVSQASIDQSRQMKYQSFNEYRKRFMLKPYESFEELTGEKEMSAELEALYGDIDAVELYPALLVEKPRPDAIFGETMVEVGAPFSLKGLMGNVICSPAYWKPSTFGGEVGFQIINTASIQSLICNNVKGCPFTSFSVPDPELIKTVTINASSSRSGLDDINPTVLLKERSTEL
Kind of data set: biochemical. Type of data set: biochemical. Particulars: for SI (selectivity index): IC50 (COX-1)/IC50 (COX-2); for fold less potent than compound 8o against COX-2: ratio of COX-2 IC50 values.

The conditions of data set [8]: cited from earlier work.

SMILES strings stand for the structures. Where “and” joins values, the source holds several entries; their conditions need not be identical. Equal entries are not always repeated.

Broadly, the IC50 is the point on the concentration scale where inhibition reaches its midpoint. Take `COc1ccc(C2Nc3nnc(-c4cccnc4)n3C(N)=C2C#N)cc1` (centres unmarked) [Compound 8o, 5-Amino-7,8-dihydro-7-(4-methoxyphenyl)-3-(pyridin-3-yl)-[1,2,4] triazolo[4,3-a]pyrimidine-6-carbonitrile]: in data set [1], the “% of edema inhibition 1 h” value amounted to 37%, the “% of edema inhibition 3 h” value is recorded as 61% and the “% of edema inhibition 5 h” value was determined as 73%. For the same compound, in data set [2], the “CK-MB (IU/L)” value is 17 ± 01 IU/L, the “LDH (IU/L)” value is recorded as 1390 ± 50 IU/L and the “troponin-I” value was 107 ± 05 pg/mL. In addition, in data set [3], the “score: no. of gastric ulcers” value was 0, the “score: severity lesions” value is 0 and the “ulceration in the isolated rat stomach (observation)” value is given as “no ulceration”. Further, in data set [4], the 50% inhibitory concentration (IC50) was 2.1 ± 0.07 nM. In addition, in data set [5], the potency worked out at 3.5; the “% inhibition (number of writhing)” value was 47% and 47.50%; the “no. of writhes (mean ± SE)” value is 15.00 ± 0.50. Moreover, the IC50 in data set [6] came to 3.05 µM.

With `O=c1c(O)c(-c2ccc(O)c(O)c2)oc2cc(O)cc(O)c12` [Quercetin, reference compound], the IC50 in data set [6] came out at […].

On to `N#CC1=C(N)n2c(nnc2-c2cccnc2)NC1c1ccc(Cl)cc1` (centres unmarked) [Compound 8m, 5-Amino-7-(4-chlorophenyl)-7,8-dihydro-3-(pyridin-3-yl)-[1,2,4]triazolo [4,3-a]pyrimidine-6-carbonitrile], for which, in data set [1], the “% of edema inhibition 1 h” value was determined as 32%, the “% of edema inhibition 3 h” value is given as 59% and the “% of edema inhibition 5 h” value is recorded as 70%. Moreover, in data set [7], the IC50 came out at 11.6 µM and the “SI (selectivity index)” value is reported as 20. In data set [2], the “CK-MB (IU/L)” value was determined as 20 ± 02 IU/L, the “LDH (IU/L)” value is listed as 1485 ± 60 IU/L and the “troponin-I” value stood at 128 ± 06 pg/mL. The IC50 in data set [4] is 2.95 ± 0.08 nM. In data set [5], the potency is on record as 3, the “% inhibition (number of writhing)” value is recorded as 41% and the “no. of writhes (mean ± SE)” value stood at 19.00 ± 0.60. Further, the IC50 in data set [6] was 2.9 µM and 3.05 µM.

For `N#CC1=C(N)n2c(nnc2-c2cccnc2)NC1c1ccc(Br)cc1` (centres unmarked) [Compound 8l, 5-Amino-7-(4-bromophenyl)-7,8-dihydro-3-(pyridin-3-yl)-[1,2,4]triazolo [4,3-a]pyrimidine-6-carbonitrile], in data set [7], the midpoint of inhibition, the IC50, lay at 53.7 µM and the “SI (selectivity index)” value is given as 4.

Regarding `CC(C)Cc1ccc(C(C)C(=O)O)cc1` (centres unmarked) [ibuprofen], the ulcer index in data set [8] was 21.26.

With `Cc1ccc(-c2cc(C(F)(F)F)nn2-c2ccc(S(N)(=O)=O)cc2)cc1` [Celecoxib, reference compound], in data set [1], the “% of edema inhibition 1 h” value was found to be 40%, the “% of edema inhibition 3 h” value is listed as 54% and the “% of edema inhibition 5 h” value was found to be 22%. Moreover, in data set [2], the “CK-MB (IU/L)” value is reported as 96 ± 04 IU/L, the “LDH (IU/L)” value is listed as 2100 ± 90 IU/L and the “troponin-I” value is on record as 340 ± 10 pg/mL. Also, in data set [3], the “score: no. of gastric ulcers” value is 2.5 ± 0.10 and the “score: severity lesions” value is 5.80 ± 0.20. For the same compound, in data set [5], the potency was determined as 1.00, the “% inhibition (number of writhing)” value is 13.5% and the “no. of writhes (mean ± SE)” value was 29.00 ± 0.70. Besides, the “% inhibition (number of writhing)” value in data set [5] (listed as celecoxib) turned out to be 13.50%.

Turning to `Cc1ccc(C2Nc3nnc(-c4cccnc4)n3C(N)=C2C#N)cc1` (centres unmarked) [Compound 8n, 5-Amino-7,8-dihydro-3-(pyridin-3-yl)-7-p-tolyl-[1,2,4]triazolo[4,3-a]pyrimidine-6-carbonitrile], in data set [7], the IC50 was 21.9 µM and the “SI (selectivity index)” value turned out to be 10.

For `N#CC1=C(N)n2c(nnc2-c2ccccc2)NC1c1ccccc1` (centres unmarked) [Compound 8a, 5-Amino-7,8-dihydro-3,7-diphenyl-[1,2,4]triazolo[4,3-a]pyrimidine-6-carbonitrile], in data set [7], 21.7 µM corresponded to half-maximal inhibition (IC50) and the “SI (selectivity index)” value amounted to 10.

Consider `N#CC1=C(N)n2c(nnc2-c2cccnc2)NC1c1ccccc1` (centres unmarked) [Compound 8k, 5-Amino-7,8-dihydro-7-phenyl-3-(pyridin-3-yl)-[1,2,4]triazolo[4,3-a]pyrimidine-6-carbonitrile], for which, in data set [7], it took 37.5 µM to reach half-maximal inhibition (IC50), the “SI (selectivity index)” value is 8 and the “fold less potent than compound 8o against COX-2” value came to 3.5 fold.

As for `N#CC1=C(N)n2c(nnc2-c2ccncc2)NC1c1ccccc1` (centres unmarked) [Compound 8f, 5-Amino-7,8-dihydro-7-phenyl-3-(pyridin-4-yl)-[1,2,4]triazolo[4,3-a]pyrimidine-6-carbonitrile], in data set [7], the half-inhibitory concentration (IC50) was determined as 51.5 µM and the “SI (selectivity index)” value is 6.

In the case of `COc1ccc2c(c1)c(CC(=O)O)c(C)n2C(=O)c1ccc(Cl)cc1` [indomethacin], in data set [3], the “score: no. of gastric ulcers” value came to 8.5 ± 0.40 and the “score: severity lesions” value is 12.50 ± 0.70.

In the case of `Cc1ccc(C2Nc3nnc(-c4ccccc4)n3C(N)=C2C#N)cc1` (centres unmarked) [Compound 8d, 5-Amino-7,8-dihydro-3-phenyl-7-p-tolyl-[1,2,4]triazolo[4,3-a]pyrimidine-6-carbonitrile], in data set [7], 46.9 µM corresponded to half-maximal inhibition (IC50) and the “SI (selectivity index)” value was 6.

With `COc1ccc(C2Nc3nnc(-c4ccccc4)n3C(N)=C2C#N)cc1` (centres unmarked) [Compound 8e, 5-Amino-7,8-dihydro-7-(4-methoxyphenyl)-3-phenyl-[1,2,4]triazolo[4,3-a]pyrimidine-6-carbonitrile], in data set [7], half-maximal inhibition (IC50) required 29.7 µM, the “SI (selectivity index)” value came out at 8 and the “fold less potent than compound 8o against COX-2” value is 2.8 fold.

`COc1ccc(C2Nc3nnc(-c4ccncc4)n3C(N)=C2C#N)cc1` (centres unmarked) [Compound 8j, 5-Amino-7,8-dihydro-7-(4-methoxyphenyl)-3-(pyridin-4-yl)-[1,2,4]-triazolo[4,3-a]pyrimidine-6-carbonitrile]: in data set [7], the IC50 came to 42.7 µM, the “SI (selectivity index)” value worked out at 7 and the “fold less potent than compound 8o against COX-2” value was found to be 4 fold.
